According to ChEMBL document CHEMBL1145561, “Pyrrolo[1,2-b]pyridazin-2-ones as potent inhibitors of HCV NS5B polymerase” (Bioorg Med Chem Lett, 2008):
pEC50, pIC50: −log10 of the molar value.

Experiments:
[1] = Metabolic stability in cynomolgus monkey liver microsomes assessed as remains after 60 mins at 1 uM; format: ADME, Macaca fascicularis, Microsome; conditions: read-out: Stability
[2] = Cytotoxicity against human Huh7/C24 cells after 72 hrs; format: cell-based, Huh-7
[3] = (§1) Metabolic stability in human liver microsomes assessed as half life at 5 uM; format: ADME, Microsome; conditions: liver microsomes
[4] = Apparent permeability from apical to basolateral side in human Caco-2 cells at 10 uM; format: ADME, cell-based
[5] = Solubility at pH 7.5; format: physicochemical; conditions: buffer
[6] = Metabolic stability in cynomolgus monkey liver microsomes assessed as half life at 1 uM; format: ADME, Macaca fascicularis, Microsome
Hepatitis C virus [7] = experiment: Inhibition of HCV 1b NS5B RNA polymerase; design: species or system Hepatitis C virus subtype 1b
Hepatitis C virus [8] = experiment: Antiviral activity against HCV 1b in human Huh7/C24 cells after 72 hrs by replicon cell assay; format: functional, organism-based, Hepacivirus hominis; conditions: genotype 1b, Huh-7, 72 h
Cynomolgus monkey [9] = experiment: AUC (infinity) in cynomolgus monkey at 1 mg/kg, po; format: ADME, organism-based, Macaca fascicularis, Plasma; design: time infinity, dose 1 mg/kg, route oral; conditions: in vivo
Cynomolgus monkey [10] = experiment: AUC (infinity) in cynomolgus monkey at 1 mg/kg, iv; format: ADME, organism-based, Macaca fascicularis, Plasma; design: time infinity, dose 1 mg/kg, route intravenous; conditions: in vivo
[11] = Clearance in cynomolgus monkey at 1 mg/kg, iv; format: ADME, organism-based, Macaca fascicularis; design: dose 1 mg/kg, route intravenous; conditions: in vivo
[12] = Oral bioavailability in cynomolgus monkey at 1 mg/kg; format: ADME, organism-based, Macaca fascicularis; conditions: in vivo
[13] = Metabolic stability in human liver microsomes assessed as remains after 60 mins at 5 uM; format: ADME, Microsome; conditions: read-out: Stability
Liver microsomes = experiment: as §1; format: ADME, Microsome; conditions: microsomes, 5 µM

Compound | remaining at 1 h, 1 µM [1] | half-life at 5 µM [3] | Papp A→B at 10 µM [4] | solubility [5] | half-life at 1 µM [6] | pIC50 (Hepatitis C virus [7]) | pEC50 (Hepatitis C virus [8]) | AUC (Cynomolgus monkey [9]) | AUC (Cynomolgus monkey [10]) | clearance [11] | bioavailability [12] | remaining at 1 h, 5 µM [13] | t1/2 (Liver microsomes) | CC50 at 72 h [2]
O=c1c(C2=NS(=O)(=O)c3ccccc3N2)c(O)c2cccn2n1Cc1ccc(F)cc1 | – | – | – | – | – | 6.07 | – | – | – | – | – | – | 45 min | –
CC(C)CCn1c(=O)c(C2=NS(=O)(=O)c3cc(NS(=O)(=O)C4CC4)ccc3N2)c(O)c2cccn21 | 87% | 59 min | 0.8 ×10⁻⁶ cm/s | > 100 µM | > 60 min | 6.80 | 7.02 | 141 ng·h/mL | 3770 ng·h/mL | 5 mL/min/kg | 4% | – | – | > 33000 nM
COc1ccc2c(c1)S(=O)(=O)N=C(c1c(O)c3cccn3n(CCC(C)C)c1=O)N2 | – | – | – | – | – | 5.66 | 4.77 | – | – | – | – | – | – | > 100000 nM
CC(C)CCn1nc(-c2cccs2)c(O)c(C2=Nc3ccc(NS(C)(=O)=O)cc3S(=O)(=O)N2)c1=O | – | – | 0.03 ×10⁻⁶ cm/s | > 100 µM | – | – | – | 30 ng·h/mL | 1330 ng·h/mL | – | 2% | – | – | –
CC(C)CCn1c(=O)c(C2=NS(=O)(=O)c3ccccc3N2)c(O)c2cccn21 | – | 14 min | 11 ×10⁻⁶ cm/s | > 200 µM | 11 min | 6.01 | 5.28 | 12900 ng·h/mL | 20500 ng·h/mL | 49 mL/min/kg | 63% | – | – | > 100000 nM
CC(C)CCn1c(=O)c(C2=NS(=O)(=O)c3cc(NS(C)(=O)=O)ccc3N2)c(O)c2cc(C#N)cn21 | – | – | – | – | – | 6.49 | – | – | – | – | – | – | – | –
CC(C)NCC(O)COc1cccc2ccccc12 (stereo unspecified) [PROPRANOLOL] | – | – | 10 ×10⁻⁶ cm/s | – | – | – | – | – | – | – | – | – | – | –

Now from value to compound, other results behind:

remaining at 1 h, 1 µM [1] | half-life at 5 µM [3] | Papp A→B at 10 µM [4] | solubility [5] | half-life at 1 µM [6] | pIC50 (Hepatitis C virus [7]) | pEC50 (Hepatitis C virus [8]) | AUC (Cynomolgus monkey [9]) | AUC (Cynomolgus monkey [10]) | clearance [11] | bioavailability [12] | remaining at 1 h, 5 µM [13] | t1/2 (Liver microsomes) | Compound | CC50 at 72 h [2]
66% | 42 min | 0.2 ×10⁻⁶ cm/s | > 100 µM | > 60 min | > 8.00 | 8.07 | 83 ng·h/mL | – | – | – | – | – | CC(C)CCn1c(=O)c(C2=Nc3ccc(NS(C)(=O)=O)cc3S(=O)(=O)N2)c(O)c2cccn21 | > 1000 nM
– | 10 min | 0.7 ×10⁻⁶ cm/s | > 100 µM | 14 min | > 8.00 | 8.30 | 25 ng·h/mL | 1210 ng·h/mL | 14 mL/min/kg | 2% | – | – | CC(C)(C)CCn1c(=O)c(C2=NS(=O)(=O)c3cc(NS(C)(=O)=O)ccc3N2)c(O)c2cccn21 | > 1000 nM
90% | > 60 min | 0.1 ×10⁻⁶ cm/s | > 100 µM | > 60 min | > 8.00 | – | 6 ng·h/mL | 539 ng·h/mL | 31 mL/min/kg | 1% | 86% | – | CS(=O)(=O)Nc1ccc2c(c1)S(=O)(=O)N=C(c1c(O)c3cccn3n(Cc3ccc(F)cc3)c1=O)N2 | > 1000 nM
– | > 60 min | 4.3 ×10⁻⁶ cm/s | > 100 µM | 60 min | 6.96 | 6.72 | 79 ng·h/mL | 1060 ng·h/mL | 16 mL/min/kg | 7% | 55% | – | CC(C)CCn1c(=O)c(C2=NS(=O)(=O)c3cc(N(C)S(C)(=O)=O)ccc3N2)c(O)c2cccn21 | > 33000 nM
– | > 60 min | – | – | – | 6.89 | 6.42 | – | – | – | – | 100% | – | O=c1c(C2=NS(=O)(=O)c3cc(C4CCCS4(=O)=O)ccc3N2)c(O)c2cccn2n1Cc1ccc(F)cc1 (racemic) | > 33000 nM
– | > 60 min | – | – | – | 7.60 | 7.66 | – | – | – | – | 102% | – | CS(=O)(=O)Nc1ccc2c(c1)S(=O)(=O)N=C(c1c(O)c3cccn3n(Cc3ccc(F)c(Cl)c3)c1=O)N2 | > 1000 nM
– | 49 min | – | – | – | 7.22 | 6.92 | – | – | – | – | – | – | CN(c1ccc2c(c1)S(=O)(=O)N=C(c1c(O)c3cccn3n(CCC(C)(C)C)c1=O)N2)S(C)(=O)=O | > 33000 nM
90% | > 60 min | 0.9 ×10⁻⁶ cm/s | > 60 µM | > 60 min | 6.89 | 6.48 | 107 ng·h/mL | 1780 ng·h/mL | 9 mL/min/kg | 6% | 90% | – | CN(c1ccc2c(c1)S(=O)(=O)N=C(c1c(O)c3cccn3n(Cc3ccc(F)cc3)c1=O)N2)S(C)(=O)=O | > 10000 nM
– | > 60 min | – | – | – | 7.57 | 7.72 | – | – | – | – | 78% | – | CC(C)CCn1c(=O)c(C2=NS(=O)(=O)c3cc(NS(C)(=O)=O)ccc3N2)c(O)c2cc(F)cn21 | > 1000 nM
